Values after ≈ are worked out from the molar mass of the structure shown.
Tested on: Trichophyton mentagropytes TIMM 2789
Assay: MIC by microdilution method in 96-well plates, inactivation of agents by lecithin and Tween 80
Format: cell-based
Conditions: TIMM2789, 168 h, 7 days
Experimental: MIC (minimum inhibitory concentration) was measured by means of the microdilution method by using 96-well plates to investigate the inactivation of respective agents caused by lecithin and Tween 80. The following four media were used. That is, a Sabouraud liquid medium (SDB) as a base medium, a medium obtained by adding 0.7% Tween 80 to SDB, a medium obtained by adding 1% lecithin to SDB, and a medium obtained by adding 0.7% Tween 80 and 1% lecithin to SDB were used. The following agents were used. That is, lanoconazole, bifonazole, and terbinafine were used. The following test strain was used. That is, Trichophyton mentagropytes TIMM 2789 (available from Institute of Medical Mycology of Teikyo University), which is generally used for the animal infection experiment, was used. The cultivation was performed at 28° C. for 7 days, while the microbial concentration upon the inoculation was about 10^4 conidia/ml. After the cultivation, it was regarded that MIC (μg/ml) was represented by the minimum agent concentration of the plate on which no microbial growth was observed by visual observation.

[1] = Sabouraud liquid medium (SDB), additive none, 28° C.

Structure (SMILES)	MIC (SDB with 0.7% Tween 80, 28° C.) [µg/mL]	MIC (SDB with 1% lecithin, 28° C.) [µg/mL]	MIC [1] [µg/mL]
c1ccc(-c2ccc(C(c3ccccc3)n3ccnc3)cc2)cc1 (stereo not drawn) [Bifonazole, bifonazole]	> 25	> 25	1.56 (≈ 5.03 µM)
N#C/C(=C1/SCC(c2ccccc2Cl)S1)n1ccnc1 (stereo not drawn) [Lanoconazole, lanoconazole]	0.312 (≈ 0.975 µM)	0.078 (≈ 0.244 µM)	≤ 0.005
CN(C/C=C/C#CC(C)(C)C)Cc1cccc2ccccc12 [Terbinafine, terbinafine]	0.312 (≈ 1.07 µM)	0.078 (≈ 0.268 µM)	≤ 0.005

Source: patent US6929927B2, “Method of evaluating antifungal agent” (Pola Chemical Industries Inc., priority 2000, dated 2005)
